Laboratory results: ChEMBL document CHEMBL1201862, “PubChem BioAssay data set” (2004)
The source made the active and inactive calls.

Key:
[1] = THP-1 cell cytotoxicity, dose response, cytotoxicity control for non-replicating M. tuberculosis project (AID 489025); format: functional
[2] = A cytotoxicity screen of small molecule inhibitors of the PhoP region in Salmonella typhi identified in the primary screen. [Related pubchem assays: 1850, 1864, 1985 ]; format: functional
[3] = target: T1, Heat shock factor protein 1 (Mus musculus, UniProt P38532); experiment: HSF1 potentiators in luciferase reporter cells, confirmation, cell-based, NIH3T3, luminescence, dose retest (AID 435004); format: functional;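 note: stress induced by proteasome inhibitor MG132 added 30 min after compound; luciferase reporter driven by HSF1 response element in NIH3T3 cells; actives raise luminescence as potentiators of the MG132 stress response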
T1 sequence (P38532 whole entry): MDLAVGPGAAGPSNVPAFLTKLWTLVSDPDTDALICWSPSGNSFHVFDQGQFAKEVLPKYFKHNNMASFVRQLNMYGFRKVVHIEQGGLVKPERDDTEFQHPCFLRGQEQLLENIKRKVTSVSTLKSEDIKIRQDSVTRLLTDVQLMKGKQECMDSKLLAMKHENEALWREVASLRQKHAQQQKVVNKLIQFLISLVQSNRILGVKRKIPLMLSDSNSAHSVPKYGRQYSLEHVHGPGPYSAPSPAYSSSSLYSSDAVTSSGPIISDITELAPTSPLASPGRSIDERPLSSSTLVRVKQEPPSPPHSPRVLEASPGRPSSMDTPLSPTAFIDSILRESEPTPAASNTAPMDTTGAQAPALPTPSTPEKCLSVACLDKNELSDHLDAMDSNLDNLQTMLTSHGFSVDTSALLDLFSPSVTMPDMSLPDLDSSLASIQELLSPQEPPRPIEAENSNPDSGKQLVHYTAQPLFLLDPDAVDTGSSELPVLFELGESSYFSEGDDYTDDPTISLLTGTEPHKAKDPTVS

[4] = target: Prothrombin (Homo sapiens, UniProt P00734); experiment: Thrombin 1536 HTS Dose Response Confirmation. [Related pubchem assays: 1046 (Thrombin 1536 HTS; hits were confirmed in this assay)]; format: functional
[5] = target: T2, fMet-Leu-Phe receptor (Homo sapiens, UniProt P21462); experiment: FPR ligands, dose response (AID 519); format: functional
T2 sequence (P21462 whole entry): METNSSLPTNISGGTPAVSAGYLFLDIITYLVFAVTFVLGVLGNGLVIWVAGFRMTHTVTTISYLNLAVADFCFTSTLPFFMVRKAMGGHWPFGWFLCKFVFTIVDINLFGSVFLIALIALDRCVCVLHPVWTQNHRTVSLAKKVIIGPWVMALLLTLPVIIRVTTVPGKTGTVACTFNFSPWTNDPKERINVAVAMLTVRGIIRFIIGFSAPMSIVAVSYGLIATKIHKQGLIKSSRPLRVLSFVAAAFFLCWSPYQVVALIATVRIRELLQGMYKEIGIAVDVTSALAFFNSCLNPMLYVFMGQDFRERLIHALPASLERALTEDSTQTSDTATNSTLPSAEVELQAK

[6] = target: Cytochrome P450 3A4 (Homo sapiens, UniProt P08684);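 note: CYP3A4 tested as one member of a cytochrome P450 panel screen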
[7] = target: T3, Cytochrome P450 1A2 (Homo sapiens, UniProt P05177);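 note: PubChem cytochrome P450 panel assay, CYP1A2 panel member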
T3 sequence (P05177 whole entry): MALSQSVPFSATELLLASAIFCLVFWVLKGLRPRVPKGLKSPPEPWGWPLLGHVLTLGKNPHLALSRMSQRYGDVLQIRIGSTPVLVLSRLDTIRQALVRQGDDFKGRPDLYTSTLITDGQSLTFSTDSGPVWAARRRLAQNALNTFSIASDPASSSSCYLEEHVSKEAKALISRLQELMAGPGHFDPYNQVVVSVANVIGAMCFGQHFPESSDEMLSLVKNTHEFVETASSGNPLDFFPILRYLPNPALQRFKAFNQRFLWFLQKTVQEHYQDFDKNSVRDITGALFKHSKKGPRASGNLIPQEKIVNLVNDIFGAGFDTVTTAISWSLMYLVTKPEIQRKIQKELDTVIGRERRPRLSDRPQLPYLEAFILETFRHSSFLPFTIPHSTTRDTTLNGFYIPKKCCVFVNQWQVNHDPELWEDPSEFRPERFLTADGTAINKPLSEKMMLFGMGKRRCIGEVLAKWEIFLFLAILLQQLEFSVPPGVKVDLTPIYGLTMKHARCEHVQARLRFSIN

[8] = target: T4, Tyrosine-protein phosphatase non-receptor type 7 (Homo sapiens, UniProt P35236); experiment: inhibitors of human HePTP phosphatase, […], biochemical, absorbance, leukemia target (AID 521); format: functional
T4 sequence (P35236 whole entry): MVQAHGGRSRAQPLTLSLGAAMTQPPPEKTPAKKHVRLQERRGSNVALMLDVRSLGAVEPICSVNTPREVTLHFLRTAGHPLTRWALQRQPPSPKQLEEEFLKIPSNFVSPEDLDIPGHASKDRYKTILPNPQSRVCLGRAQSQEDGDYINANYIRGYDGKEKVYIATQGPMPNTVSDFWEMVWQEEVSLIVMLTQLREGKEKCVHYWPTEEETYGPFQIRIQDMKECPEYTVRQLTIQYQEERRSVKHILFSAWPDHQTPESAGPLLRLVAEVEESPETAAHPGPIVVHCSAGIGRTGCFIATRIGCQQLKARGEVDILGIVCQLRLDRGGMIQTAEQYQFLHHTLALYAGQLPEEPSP

[9] = growth suppression of PTEN-null colon cells, dose response, cell-based, HCT116 PTEN knockout (AID 1047); format: functional;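 note: HCT116 colon tumor cells with PTEN knocked out; cells exposed to compound for 60 hours before readout; potency for loss of cell viability measured by luminescence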
[10] = cytotoxicity toward NIH3T3 fibroblasts, dose response, counter-screen, cell-based, ATP luminescence, mouse fibroblasts (AID 2010); format: functional;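 note: cells exposed to compound for about 90 hours before reading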
[11] = inhibitors of intracellular T. cruzi replication, confirmation, NIH3T3 host cells, beta-gal luminescence (AID 2044); format: functional, cell-based;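 note: intracellular parasites grown in NIH/3T3 mouse fibroblasts as host cells; luminescent beta-galactosidase reporter signal from transgenic T. cruzi replicating inside host cells; inhibitors lower the luminescence signal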
[12] = growth suppression of beta-catenin-knockout colon cells, dose response, cell-based, HCT116, human colon tumor (AID 1045); format: functional;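 note: HCT116 colon tumor cells with beta catenin knocked out; cells exposed to compound for 60 hours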
[13] = HEp-2 cell cytotoxicity, dose response, cytotoxicity control for RSV inhibitor project, HTS (AID 2410); format: functional; details: human respiratory syncytial virus
[14] = target: T5, Short transient receptor potential channel 4 (Mus musculus, UniProt Q9QUQ5); experiment: mouse TRPC4 channel inhibitors, dose response, cell-based, HEK293 TRPC4/mu-opioid, Fluo-4 calcium (AID 434942); format: functional;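 note: potency of inhibitors blocking the TRPC4 calcium response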
T5 sequence (Q9QUQ5 whole entry): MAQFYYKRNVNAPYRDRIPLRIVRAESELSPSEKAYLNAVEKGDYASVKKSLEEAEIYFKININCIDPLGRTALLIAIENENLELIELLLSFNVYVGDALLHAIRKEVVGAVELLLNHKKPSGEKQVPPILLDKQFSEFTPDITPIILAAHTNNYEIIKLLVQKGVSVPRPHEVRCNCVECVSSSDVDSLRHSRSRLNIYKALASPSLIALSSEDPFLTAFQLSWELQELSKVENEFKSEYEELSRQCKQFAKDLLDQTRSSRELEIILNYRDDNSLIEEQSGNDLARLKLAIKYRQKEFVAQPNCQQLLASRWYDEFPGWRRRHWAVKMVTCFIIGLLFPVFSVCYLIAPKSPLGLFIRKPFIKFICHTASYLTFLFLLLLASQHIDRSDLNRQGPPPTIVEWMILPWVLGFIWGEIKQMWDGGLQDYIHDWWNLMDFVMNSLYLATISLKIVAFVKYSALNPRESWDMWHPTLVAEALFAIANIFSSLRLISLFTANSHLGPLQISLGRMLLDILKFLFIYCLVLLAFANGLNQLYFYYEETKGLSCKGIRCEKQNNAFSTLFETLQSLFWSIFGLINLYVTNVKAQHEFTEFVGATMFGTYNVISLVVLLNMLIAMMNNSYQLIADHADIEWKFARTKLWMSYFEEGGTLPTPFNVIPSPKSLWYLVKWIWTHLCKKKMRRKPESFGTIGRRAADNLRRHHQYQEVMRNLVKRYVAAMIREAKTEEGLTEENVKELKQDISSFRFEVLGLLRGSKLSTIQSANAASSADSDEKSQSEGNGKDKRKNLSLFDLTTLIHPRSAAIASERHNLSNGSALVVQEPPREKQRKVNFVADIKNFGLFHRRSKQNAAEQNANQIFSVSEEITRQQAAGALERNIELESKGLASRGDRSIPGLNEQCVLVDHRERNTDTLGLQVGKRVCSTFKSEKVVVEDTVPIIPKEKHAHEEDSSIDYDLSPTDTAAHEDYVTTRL

[15] = target: G-protein coupled receptor 55 (Homo sapiens, UniProt Q9Y2T6); experiment: GPR55 antagonists blocking LPI-driven arrestin recruitment, primary screen, imaging, U2OS, beta-arrestin-GFP, LPI agonist (AID 2013); format: functional;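 note: antagonist potency measured as reduced agonist-driven arrestin aggregation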
[16] = target: FAD-linked sulfhydryl oxidase ALR (Homo sapiens, UniProt P55789); experiment: inhibitors of human ALR sulfhydryl oxidase, dose response, biochemical, H2O2 detection, luminescence, cherry-pick (AID 493248)
Sequence of FAD-linked sulfhydryl oxidase ALR (P55789 whole entry): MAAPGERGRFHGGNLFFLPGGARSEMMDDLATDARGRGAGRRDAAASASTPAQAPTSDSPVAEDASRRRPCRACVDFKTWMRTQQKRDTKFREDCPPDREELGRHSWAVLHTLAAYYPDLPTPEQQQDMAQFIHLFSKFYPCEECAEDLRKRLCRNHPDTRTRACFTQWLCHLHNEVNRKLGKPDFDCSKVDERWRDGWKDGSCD

Sequence of Cytochrome P450 3A4 (P08684 whole entry): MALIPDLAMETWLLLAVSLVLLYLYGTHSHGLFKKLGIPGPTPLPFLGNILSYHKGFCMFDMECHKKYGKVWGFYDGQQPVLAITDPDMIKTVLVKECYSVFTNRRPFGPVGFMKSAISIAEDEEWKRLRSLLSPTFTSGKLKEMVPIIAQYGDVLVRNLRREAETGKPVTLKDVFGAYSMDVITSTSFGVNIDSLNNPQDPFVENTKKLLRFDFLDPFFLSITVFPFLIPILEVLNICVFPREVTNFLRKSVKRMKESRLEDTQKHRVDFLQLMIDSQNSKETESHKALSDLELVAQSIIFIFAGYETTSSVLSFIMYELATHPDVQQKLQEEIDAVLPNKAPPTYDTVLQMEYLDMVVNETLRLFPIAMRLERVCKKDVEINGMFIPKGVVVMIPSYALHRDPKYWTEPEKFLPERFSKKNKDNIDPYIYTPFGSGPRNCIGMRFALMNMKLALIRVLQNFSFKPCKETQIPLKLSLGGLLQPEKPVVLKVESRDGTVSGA
Sequence of G-protein coupled receptor 55 (Q9Y2T6 whole entry): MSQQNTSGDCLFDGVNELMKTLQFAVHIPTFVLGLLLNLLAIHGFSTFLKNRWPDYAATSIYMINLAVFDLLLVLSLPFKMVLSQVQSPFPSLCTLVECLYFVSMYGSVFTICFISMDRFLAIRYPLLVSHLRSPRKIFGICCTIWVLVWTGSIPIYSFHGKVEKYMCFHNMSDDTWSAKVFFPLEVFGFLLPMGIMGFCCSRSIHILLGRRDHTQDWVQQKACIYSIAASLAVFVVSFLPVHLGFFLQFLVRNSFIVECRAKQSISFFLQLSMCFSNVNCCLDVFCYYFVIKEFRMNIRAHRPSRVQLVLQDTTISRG

In the case of `CC1=NN(C(=O)c2ccc(Cn3nc(C)c(Br)c3C)cc2)C(O)(C(F)(F)F)C1` (centres undefined), the CC50 [1] was 34 µM (active).
For `O=C(CC1(O)C(=O)Nc2ccc(Br)cc21)c1ccc2c(c1)OCO2` (centres undefined), the EC50 [2] was > 50 µM (active), the EC50 [3] was > 260 µM (inactive) and the IC50 [4] was 2.3 µM (active).
In the case of `O=C(C1=C(O)C(=O)N(Cc2ccco2)C1c1ccccc1)c1cccs1` (centres undefined), the Ki [5] was 35.2 µM (inactive), the AC50 [6] was 14.1 µM (inconclusive) and the AC50 [7] was 25.1 µM (inconclusive).
For `Cc1csc(NC(=O)CCn2c(=O)oc3ccccc32)n1`, the Ki [5] was > 66.7 µM (inactive).
For `COc1ccc(NC(=O)CN2CCN(c3ccccc3F)CC2)cc1`, the IC50 [8] was > 100 µM (not active).
In the case of `COc1cc(CNC2CCCC2)cc(Cl)c1OCc1ccccc1F`, the EC50 [9] was 19.9 µM (active), the EC50 [10] was > 60 µM (not active) and the EC50 [11] was 2.01 µM (active). For the same compound, the EC50 [12] was 19.1 µM (active).
With `CCOc1ccccc1-n1c(SCC(=O)NC(C)(C)C)nnc1-c1ccoc1C` the IC50 [8] was > 100 µM (not active).
For `COc1ccc(OC)c(C2C(C(=O)c3cccs3)=C(O)C(=O)N2c2cc(C)on2)c1` (centres undefined), the Ki [5] was > 66.7 µM (inactive).
With `COc1ccc(-c2nnc(SCC(=O)Nc3sc4c(c3C#N)CCCC4)n2-c2ccccc2)cc1` the EC50 [9] was 5.14 µM (active), the EC50 [12] was 5.75 µM (active) and the CC50 [13] was 9.89 µM (active).
With `C=C(c1ccc(O)cc1)c1ccc(O)cc1` the EC50 [14] was 3.76 µM (active), the IC50 [15] was 1.75 µM (active) and the AC50 [16] was 0.205 µM (active).
In the case of `COCCN(CCOC)S(=O)(=O)c1ccc(C(=O)Nc2nc3c(s2)CCc2ccccc2-3)cc1`, the EC50 [9] was 8.49 µM (active) and the EC50 [12] was 13.1 µM (active).
With `C=CCN1C(=O)C(C(C)CC)NC1=S` (centres undefined) the IC50 [4] was > 50 µM (not active).
